Reference: ChEMBL document CHEMBL3885881, “DrugMatrix”

Organism: Rattus norvegicus
Assay: DrugMatrix - Regimen: Daily Repeat
Format: toxicity, organism-based, Sprague-Dawley
Parameters: regimen Daily Repeat, gender Male, age 6-8 weeks
Settings: in vivo, po, route oral GAVAGE, […]; for ABSOLUTE BASOPHIL / ABSOLUTE EOSINOPHIL / ABSOLUTE LYMPHOCYTE / ABSOLUTE MONOCYTE / ABSOLUTE SEGMENTED NEUTROPHIL / BASOPHIL / EOSINOPHIL / ERYTHROCYTE COUNT / HEMATOCRIT / HEMOGLOBIN / LEUKOCYTE COUNT / LYMPHOCYTE / MEAN CORPUSCULAR HEMOGLOBIN / MEAN CORPUSCULAR HEMOGLOBIN CONCENTRATION / MEAN CORPUSCULAR VOLUME / MONOCYTE / NEUTROPHIL / NUCLEATED RED BLOOD CELLS / PLATELET COUNT: tissue Blood; for ALANINE AMINOTRANSFERASE / ALBUMIN / ALKALINE PHOSPHATASE / ASPARTATE AMINOTRANSFERASE / BLOOD UREA NITROGEN / CARBON DIOXIDE / CHLORIDE / CHOLESTEROL / CREATINE PHOSPHOKINASE / CREATININE / GLUCOSE / LACTATE DEHYDROGENASE / LIPASE / PHOSPHORUS / POTASSIUM / SODIUM / TOTAL BILIRUBIN / TOTAL PROTEIN / URIC ACID: tissue Plasma
[1] = 20 mg/kg, 120 h, dose level Low, time 5 day
[2] = 200 mg/kg, 72 h, dose level High, time 3 day
[3] = 200 mg/kg, 120 h, dose level High, time 5 day
[4] = 200 mg/kg, dose level High, time 28 day

Which results are given for CCCCCCCCCc1ccc(O)cc1 [4-NONYLPHENOL]?
ABSOLUTE BASOPHIL [1]: 0 CELLS/uL; ABSOLUTE EOSINOPHIL [1]: 0 CELLS/uL; ABSOLUTE LYMPHOCYTE [1]: 17193.33 CELLS/uL; ABSOLUTE MONOCYTE [1]: 138.33 CELLS/uL; ABSOLUTE SEGMENTED NEUTROPHIL [1]: 1901.67 CELLS/uL; BASOPHIL [1]: 0%; EOSINOPHIL [1]: 0%; ERYTHROCYTE COUNT [1]: 5.43 x10E6/uL; HEMATOCRIT [1]: 34.2%; HEMOGLOBIN [1]: 13.17 G/DL; LEUKOCYTE COUNT [1]: 19.23 x10E3/uL; LYMPHOCYTE [1]: 89.67%; MEAN CORPUSCULAR HEMOGLOBIN [1]: 24.2 pg; MEAN CORPUSCULAR HEMOGLOBIN CONCENTRATION [1]: 38.5 G/DL; MEAN CORPUSCULAR VOLUME [1]: 62.9 fL; MONOCYTE [1]: 0.67%; NEUTROPHIL [1]: 9.67%; NUCLEATED RED BLOOD CELLS [1]: 0 /100WBC; PLATELET COUNT [1]: 1124 x10E3/uL; ALANINE AMINOTRANSFERASE [1]: 65.33 u/L; ALBUMIN [1]: 3.77 G/DL; ALKALINE PHOSPHATASE [1]: 413 u/L; ASPARTATE AMINOTRANSFERASE [1]: 82.67 u/L; BLOOD UREA NITROGEN [1]: 15.67 mg/dL; CARBON DIOXIDE [1]: 25.67 mmol/L; CHLORIDE [1]: 102.33 MEQ/L; CHOLESTEROL [1]: 56.33 mg/dL; CREATINE PHOSPHOKINASE [1]: 278 u/L; CREATININE [1]: 0.21 mg/dL; GLUCOSE [1]: 202.33 mg/dL; LACTATE DEHYDROGENASE [1]: 147 u/L; LIPASE [1]: 10.67 u/L; PHOSPHORUS [1]: 10.77 mg/dL; POTASSIUM [1]: 5.35 MEQ/L; SODIUM [1]: 142.1 MEQ/L; TOTAL BILIRUBIN [1]: 0.2 mg/dL; TOTAL PROTEIN [1]: 5.57 G/DL; URIC ACID [1]: 1.3 mg/dL; ABSOLUTE BASOPHIL [2]: 0 CELLS/uL; ABSOLUTE EOSINOPHIL [2]: 0 CELLS/uL; ABSOLUTE LYMPHOCYTE [2]: 7018 CELLS/uL; ABSOLUTE MONOCYTE [2]: 153.33 CELLS/uL; ABSOLUTE SEGMENTED NEUTROPHIL [2]: 495.33 CELLS/uL; BASOPHIL [2]: 0%; EOSINOPHIL [2]: 0%; ERYTHROCYTE COUNT [2]: 5.58 x10E6/uL; HEMATOCRIT [2]: 35.4%; HEMOGLOBIN [2]: 13.8 G/DL; LEUKOCYTE COUNT [2]: 7.67 x10E3/uL; LYMPHOCYTE [2]: 92%; MEAN CORPUSCULAR HEMOGLOBIN [2]: 24.73 pg; MEAN CORPUSCULAR HEMOGLOBIN CONCENTRATION [2]: 39 G/DL; MEAN CORPUSCULAR VOLUME [2]: 63.47 fL; MONOCYTE [2]: 2%; NEUTROPHIL [2]: 6%; NUCLEATED RED BLOOD CELLS [2]: 0 /100WBC; PLATELET COUNT [2]: 1128 x10E3/uL; ALANINE AMINOTRANSFERASE [2]: 81.33 u/L; ALBUMIN [2]: 3.77 G/DL; ALKALINE PHOSPHATASE [2]: 503.67 u/L; ASPARTATE AMINOTRANSFERASE [2]: 95.67 u/L; BLOOD UREA NITROGEN [2]: 14.33 mg/dL; CARBON DIOXIDE [2]: 32 mmol/L; CHLORIDE [2]: 103 MEQ/L; CHOLESTEROL [2]: 45.33 mg/dL; CREATINE PHOSPHOKINASE [2]: 276.67 u/L; CREATININE [2]: 0.21 mg/dL; GLUCOSE [2]: 139 mg/dL; LACTATE DEHYDROGENASE [2]: 138.67 u/L; LIPASE [2]: 10 u/L; PHOSPHORUS [2]: 10.23 mg/dL; POTASSIUM [2]: 5.46 MEQ/L; SODIUM [2]: 145.47 MEQ/L; TOTAL BILIRUBIN [2]: 0.1 mg/dL; TOTAL PROTEIN [2]: 5.47 G/DL; URIC ACID [2]: 0.9 mg/dL; ABSOLUTE BASOPHIL [3]: 0 CELLS/uL; ABSOLUTE EOSINOPHIL [3]: 0 CELLS/uL; ABSOLUTE LYMPHOCYTE [3]: 11098.67 CELLS/uL; ABSOLUTE MONOCYTE [3]: 165.33 CELLS/uL; ABSOLUTE SEGMENTED NEUTROPHIL [3]: 402.67 CELLS/uL; NUCLEATED RED BLOOD CELLS [3]: 0 /100WBC; CARBON DIOXIDE [3]: 26.67 mmol/L; LACTATE DEHYDROGENASE [3]: 116.33 u/L; LIPASE [3]: 10.33 u/L; URIC ACID [3]: 1.43 mg/dL; BASOPHIL [4]: 0.42%; EOSINOPHIL [4]: 0.61%; ERYTHROCYTE COUNT [4]: 8.21 x10E6/uL; HEMATOCRIT [4]: 48.61%; HEMOGLOBIN [4]: 16.26 G/DL; LEUKOCYTE COUNT [4]: 11.53 x10E3/uL; LYMPHOCYTE [4]: 85.82%; MEAN CORPUSCULAR HEMOGLOBIN [4]: 19.84 pg; MEAN CORPUSCULAR HEMOGLOBIN CONCENTRATION [4]: 33.5 G/DL; MEAN CORPUSCULAR VOLUME [4]: 59.24 fL; MONOCYTE [4]: 1.34%; NEUTROPHIL [4]: 10.54%; PLATELET COUNT [4]: 1292.8 x10E3/uL; ALANINE AMINOTRANSFERASE [4]: 29.3 u/L; ALBUMIN [4]: 3.91 G/DL; ALKALINE PHOSPHATASE [4]: 186.6 u/L; ASPARTATE AMINOTRANSFERASE [4]: 70.1 u/L; BLOOD UREA NITROGEN [4]: 11.8 mg/dL; CHLORIDE [4]: 107.1 MEQ/L; CHOLESTEROL [4]: 66 mg/dL; CREATINE PHOSPHOKINASE [4]: 191.6 u/L; CREATININE [4]: 0.46 mg/dL; GLUCOSE [4]: 145.6 mg/dL; PHOSPHORUS [4]: 12.09 mg/dL; POTASSIUM [4]: 6.67 MEQ/L; SODIUM [4]: 149 MEQ/L; TOTAL BILIRUBIN [4]: 0.23 mg/dL; TOTAL PROTEIN [4]: 6.7 G/DL
